The subject of assay [1] is protein synthesis in Leishmania tarentolae cell extract. Put plainly: Leishmania tarentolae in vitro translation (eGFP expression in cell extract). The class given is biochemical. Conditions: L. tarentolae extract, read-out: EC50 inhibition of eGFP protein synthesis. As to the method: Crystals of TbMetRS:Met were obtained by incubating TbMetRS with 10 mM methionine and 1 mM TCEP before crystallisation by sitting drop vapour diffusion against a reservoir solution containing 2.0-2.3 M Ammonium Sulphate, 0.2 M NaCl, 0.1 M Na Cacodylate pH 6.0-6.6. Single crystals grew after 3-4 days incubation at 18 °C. To obtain ternary TbMetRS:Met:Ligand complexes, TbMetRS:Met crystals were soaked for 10-30 seconds in a 10 μl drop consisting of 1 μl of ligand (20 mM in 20% DMSO), 4 μl reservoir solution and 5 μl glycerol. Crystals were flash frozen immediately in liquid nitrogen in preparation for data collection.
Diffraction data were measured at Diamond Light Source beamline I02. […]
Protein translation in a Leishmania cell extract was studied using a commercially available cell-free protein expression kit (Jena Bioscience). Reactions were carried out in black 384-well, small-volume plates (Greiner) in 10 µl reaction volumes containing 7 µl L. tarentolae cell extract, 1 µl eGFP DNA template and 2 µl nuclease free water (‘no DNA’ wells were included as negative controls). eGFP expression was monitored over time using a BMG PheraStar plate reader (Excitation 485 nm; […]
The effect of DDD806905 on mitochondrial protein synthesis was determined by BioDuro using the MitoBiogenesisTM In-Cell ELISA Kit (Abcam). […] In the assay the levels of SDH-A and COX-1 are measured in H9C2 cells. […]

Assay [2] concerns L. donovani axenic amastigotes. The assay is described as follows: Leishmania axenic amastigote viability assay. It is filed as cell-based, Leishmania donovani. Conditions: Leishmania donovani. The method, then: carried out as described above using 5%, 10% and 20% FBS in the media. To examine the effect of the methionine concentration on the potency of DDD806905 parasites were grown in the presence of drug and in the presence (or absence) of 20-fold excess methionine (0.3 g/l). IC50 curve fitting was undertaken in GraFit version 6.0 (Erithacus Software) using a four-parameter logistic dose-response curve (equation 6), with s the slope.
Leishmania Axenic Amastigote Assay
The Leishmania axenic amastigote assay was performed using the method published in Nühs et al 15.
Leishmania Intracellular Amastigote Assay
The intramacrophage Leishmania assay was performed using a modified version of the method described in De Rycker et al 16. […]
amphotericin B was included. Controls were as follows: columns 11 and 12: DMSO, columns 23 and 24: amphotericin B (final concentration 2 µM). 350 nl of compound was pre-dispensed into 384-well sterile intermediary plates. To the intermediary plates, 35 µl of THP-1 media was added and plates were shaken for >5 min to ensure complete mixing. THP-1 cells (8,000 per well, 50 µl) were plated into black clear-bottom 384-well plates (Corning) in presence of 20 nM phorbol 12-myristate 13- […]
in a humidified incubator for 75 h. The cells were then washed with 450 µl sterile phosphate buffered saline (PBS) supplemented with 1 mM CaCl2, 0.5 mM MgCl2, 0.1% (w/v) bovine serum albumin (PBS-A) and amastigotes were added to all wells at a multiplicity of infection of 5 (40,000 amastigotes per well). After 40 min at room temperature, plates were returned to the incubator.
Amastigotes were incubated in the presence of THP-1 macrophages for 16 h. Any remaining extracellular amastigotes were subsequently removed by washing with PBS-A followed by addition of 25 µl of the compound pre-dilutions using an Ipette-pro pipetting station (FluidX). The final dilution of each compound was 200-fold. Plates were incubated for 96 h and then washed (250 µl PBS-A) and fixed (4 % (v/v) formaldehyde-PBS, 30 min, room temperature). After fixation, the wells were washed with 250 µl PBS, stained (10 µg/ml DAPI, 0.4 µg/mL HCS Cellmask Deep Red in PBS + 0.1% (v/v) Triton X-100, 30 min, room temperature) and washed with 250 µl PBS. Finally, PBS + 0.05% (v/v) thimerosal was added to the wells, the plates were sealed and imaged on a high-content microscope (GE IN Cell 2000) using a 10x objective. Image analysis was carried out with GE IN Cell Analyzer 1000 Workstation using the “Multi Target Analysis” module. For each well, i) THP-1 cell count (cytotoxicity readout) and ii) average number of amastigotes per cell (potency readout) were […]

Molecules are shown by their SMILES. Where two headings read alike, the source gives them in different places.

As usually defined, the EC50 is the midpoint of the concentration-response curve.

`Cl.Cl.O=c1nc(NCCCNCc2cc3c(Cl)cc(Cl)cc3[nH]2)[nH]c2ccccc12` [DDD806905, 2-((3-(((4,6-dichloro-1H-indol-2-yl)methyl)amino)propyl)amino)quinazolin-4(1H)-one dihydrochloride]: the concentration for a half-maximal effect (EC50) in assay [1] (additional 1.5 mM methionine) turned out to be 12 µM; in assay [1] (no additional methionine) it was 2.2 µM; in assay [2] (Table 1, read-out: Leishmania Axenic Amastigote EC50) it was 14 µM; in assay [2] (media pH 5.6, read-out: axenic amastigote EC50), 13.7 µM.

For the origin of these results see PMC5663395, “Chemical Validation of Methionyl-tRNA Synthetase as a Druggable Target in Leishmania donovani” (ACS Infectious Diseases, 2017).
